# Where two headings read alike, the source gives them in different places.
# Columns and labels:
# Type in all cases: biochemical
# JNK1 = JNK1 (Homo sapiens, UniProt P45983); assay: Kinase profiling JNK1; conditions: for remaining activity at 100 µM: read-out: residual kinase activity, JNK1
# Source text: (§1) Any value less that 25 is considered to be highly significant inhibition.
# TBK1 = target: T1, TBK1 (Homo sapiens, UniProt Q9UHD2); assay: Kinase profiling TBK1; conditions: for remaining activity at 100 µM: read-out: residual kinase activity, TBK1
# T1 sequence (Q9UHD2 1-729): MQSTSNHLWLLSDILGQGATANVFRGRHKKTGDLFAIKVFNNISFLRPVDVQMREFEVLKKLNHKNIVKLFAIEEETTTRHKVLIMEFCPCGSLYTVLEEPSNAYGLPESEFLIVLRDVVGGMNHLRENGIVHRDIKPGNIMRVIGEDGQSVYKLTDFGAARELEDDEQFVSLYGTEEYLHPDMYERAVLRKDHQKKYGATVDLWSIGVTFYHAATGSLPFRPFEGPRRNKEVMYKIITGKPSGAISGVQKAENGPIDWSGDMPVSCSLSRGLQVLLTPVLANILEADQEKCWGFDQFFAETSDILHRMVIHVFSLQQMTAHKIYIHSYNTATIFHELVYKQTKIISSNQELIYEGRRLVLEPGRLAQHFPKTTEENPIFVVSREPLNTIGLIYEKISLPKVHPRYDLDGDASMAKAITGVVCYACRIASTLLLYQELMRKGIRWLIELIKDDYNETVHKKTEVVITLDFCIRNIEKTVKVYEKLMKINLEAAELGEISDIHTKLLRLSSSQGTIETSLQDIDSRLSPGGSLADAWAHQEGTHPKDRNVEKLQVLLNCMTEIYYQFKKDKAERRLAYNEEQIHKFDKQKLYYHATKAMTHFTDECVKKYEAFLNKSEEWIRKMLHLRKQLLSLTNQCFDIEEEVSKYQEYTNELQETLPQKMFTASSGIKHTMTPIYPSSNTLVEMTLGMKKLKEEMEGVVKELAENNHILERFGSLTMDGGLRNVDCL
# Source text: as §1
# PLK1 = PLK1 (Homo sapiens, UniProt P53350); assay: Kinase profiling PLK1; conditions: for remaining activity at 100 µM: read-out: residual kinase activity, PLK1
# Source text: as §1
# CHK2 = CHK2 (Homo sapiens, UniProt O96017); assay: Kinase profiling CHK2; conditions: for remaining activity at 100 µM: read-out: residual kinase activity, CHK2
# Source text: as §1
# PKD1 = target: T2, PKD1 (Homo sapiens, UniProt Q15139); assay: Kinase profiling PKD1; conditions: for remaining activity at 100 µM: read-out: residual kinase activity, PKD1
# T2 sequence (Q15139 1-912): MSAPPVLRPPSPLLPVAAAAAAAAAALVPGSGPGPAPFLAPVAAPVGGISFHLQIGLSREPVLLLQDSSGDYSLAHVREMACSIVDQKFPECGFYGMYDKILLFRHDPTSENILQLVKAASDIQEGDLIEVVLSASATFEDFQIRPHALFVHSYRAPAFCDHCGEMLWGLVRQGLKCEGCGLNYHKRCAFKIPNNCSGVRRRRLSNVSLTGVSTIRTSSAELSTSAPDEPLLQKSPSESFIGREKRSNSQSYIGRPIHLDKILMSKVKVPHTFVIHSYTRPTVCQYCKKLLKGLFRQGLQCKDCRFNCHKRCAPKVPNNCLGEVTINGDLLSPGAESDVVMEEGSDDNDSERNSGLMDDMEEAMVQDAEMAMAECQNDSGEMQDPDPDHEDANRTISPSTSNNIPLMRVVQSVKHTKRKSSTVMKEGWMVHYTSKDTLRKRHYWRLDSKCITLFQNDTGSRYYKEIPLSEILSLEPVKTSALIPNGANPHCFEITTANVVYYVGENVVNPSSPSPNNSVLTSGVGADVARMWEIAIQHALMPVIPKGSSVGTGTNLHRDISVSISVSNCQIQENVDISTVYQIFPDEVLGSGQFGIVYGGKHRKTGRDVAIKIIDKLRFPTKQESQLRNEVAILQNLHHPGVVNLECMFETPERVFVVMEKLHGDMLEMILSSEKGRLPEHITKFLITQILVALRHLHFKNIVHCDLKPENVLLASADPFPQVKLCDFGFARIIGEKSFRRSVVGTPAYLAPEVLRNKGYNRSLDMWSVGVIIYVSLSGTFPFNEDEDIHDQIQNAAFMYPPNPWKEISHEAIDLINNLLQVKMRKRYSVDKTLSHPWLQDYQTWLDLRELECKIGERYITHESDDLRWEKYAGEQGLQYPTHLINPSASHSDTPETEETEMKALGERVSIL
# Source text: as §1
# MLK3 = MLK3 (Homo sapiens, UniProt Q16584); assay: Kinase profiling MLK3; conditions: for remaining activity at 100 µM: read-out: residual kinase activity, MLK3
# Source text: as §1
# PKCz = target: T3, PKCz (Homo sapiens, UniProt Q05513); assay: Kinase profiling PKCz; conditions: for remaining activity at 100 µM: read-out: residual kinase activity, PKCz
# T3 sequence (Q05513 1-592): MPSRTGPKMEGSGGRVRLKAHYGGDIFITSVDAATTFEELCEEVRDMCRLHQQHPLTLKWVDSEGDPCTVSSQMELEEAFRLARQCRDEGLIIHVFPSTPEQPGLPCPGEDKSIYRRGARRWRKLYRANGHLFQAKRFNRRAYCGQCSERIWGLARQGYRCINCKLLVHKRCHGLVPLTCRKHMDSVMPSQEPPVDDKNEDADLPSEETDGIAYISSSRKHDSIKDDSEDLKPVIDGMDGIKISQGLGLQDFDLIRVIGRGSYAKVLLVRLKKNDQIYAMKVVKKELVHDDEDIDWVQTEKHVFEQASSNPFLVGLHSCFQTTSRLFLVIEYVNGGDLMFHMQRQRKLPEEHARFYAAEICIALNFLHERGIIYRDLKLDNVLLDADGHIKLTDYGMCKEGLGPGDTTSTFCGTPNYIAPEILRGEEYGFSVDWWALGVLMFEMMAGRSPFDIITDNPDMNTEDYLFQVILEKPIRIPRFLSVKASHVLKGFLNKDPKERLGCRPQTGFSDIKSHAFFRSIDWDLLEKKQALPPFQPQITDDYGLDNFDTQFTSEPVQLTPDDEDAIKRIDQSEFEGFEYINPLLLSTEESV
# Source text: as §1
# CAMK1 = CAMK1 (Homo sapiens, UniProt Q14012); assay: Kinase profiling CAMK1; conditions: for remaining activity at 100 µM: read-out: residual kinase activity, CAMK1
# Source text: as §1
# ROCK 2 = ROCK 2 (Homo sapiens, UniProt O75116); assay: Kinase profiling ROCK 2; conditions: for remaining activity at 100 µM: read-out: residual kinase activity, ROCK 2
# Source text: as §1
# [1] = 100 micromolar inhibitor, 100 = no change
# [2] = 100 micromolar inhibitor concentration, 100 is no change
# Sequence of CAMK1 (Q14012 whole entry, species assumed): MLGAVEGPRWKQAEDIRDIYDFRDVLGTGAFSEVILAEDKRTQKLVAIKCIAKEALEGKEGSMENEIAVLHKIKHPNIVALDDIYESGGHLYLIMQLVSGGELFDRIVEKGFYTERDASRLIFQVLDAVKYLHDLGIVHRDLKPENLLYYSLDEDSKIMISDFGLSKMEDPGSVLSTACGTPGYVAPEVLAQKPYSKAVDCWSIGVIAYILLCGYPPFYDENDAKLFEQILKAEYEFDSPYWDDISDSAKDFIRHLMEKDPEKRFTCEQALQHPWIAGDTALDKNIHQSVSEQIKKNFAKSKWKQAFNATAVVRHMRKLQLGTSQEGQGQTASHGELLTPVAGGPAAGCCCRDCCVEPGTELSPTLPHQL
# Sequence of PLK1 (P53350 whole entry, species assumed): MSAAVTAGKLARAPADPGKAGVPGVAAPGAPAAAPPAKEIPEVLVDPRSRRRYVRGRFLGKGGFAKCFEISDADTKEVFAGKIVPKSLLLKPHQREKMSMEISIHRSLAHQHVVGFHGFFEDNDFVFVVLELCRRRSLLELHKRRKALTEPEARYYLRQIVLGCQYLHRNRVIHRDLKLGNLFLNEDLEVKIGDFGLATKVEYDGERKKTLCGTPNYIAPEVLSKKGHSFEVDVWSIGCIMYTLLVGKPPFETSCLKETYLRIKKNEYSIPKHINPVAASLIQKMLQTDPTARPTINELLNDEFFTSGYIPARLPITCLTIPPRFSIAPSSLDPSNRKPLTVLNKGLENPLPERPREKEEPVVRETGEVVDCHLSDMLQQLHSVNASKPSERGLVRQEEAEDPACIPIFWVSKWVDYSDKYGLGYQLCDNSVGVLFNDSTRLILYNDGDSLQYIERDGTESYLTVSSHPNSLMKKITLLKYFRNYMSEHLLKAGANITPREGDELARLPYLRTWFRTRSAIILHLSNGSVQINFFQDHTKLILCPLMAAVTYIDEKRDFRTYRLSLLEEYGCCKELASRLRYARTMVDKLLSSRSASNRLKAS
# Sequence of ROCK 2 (O75116 whole entry, species assumed): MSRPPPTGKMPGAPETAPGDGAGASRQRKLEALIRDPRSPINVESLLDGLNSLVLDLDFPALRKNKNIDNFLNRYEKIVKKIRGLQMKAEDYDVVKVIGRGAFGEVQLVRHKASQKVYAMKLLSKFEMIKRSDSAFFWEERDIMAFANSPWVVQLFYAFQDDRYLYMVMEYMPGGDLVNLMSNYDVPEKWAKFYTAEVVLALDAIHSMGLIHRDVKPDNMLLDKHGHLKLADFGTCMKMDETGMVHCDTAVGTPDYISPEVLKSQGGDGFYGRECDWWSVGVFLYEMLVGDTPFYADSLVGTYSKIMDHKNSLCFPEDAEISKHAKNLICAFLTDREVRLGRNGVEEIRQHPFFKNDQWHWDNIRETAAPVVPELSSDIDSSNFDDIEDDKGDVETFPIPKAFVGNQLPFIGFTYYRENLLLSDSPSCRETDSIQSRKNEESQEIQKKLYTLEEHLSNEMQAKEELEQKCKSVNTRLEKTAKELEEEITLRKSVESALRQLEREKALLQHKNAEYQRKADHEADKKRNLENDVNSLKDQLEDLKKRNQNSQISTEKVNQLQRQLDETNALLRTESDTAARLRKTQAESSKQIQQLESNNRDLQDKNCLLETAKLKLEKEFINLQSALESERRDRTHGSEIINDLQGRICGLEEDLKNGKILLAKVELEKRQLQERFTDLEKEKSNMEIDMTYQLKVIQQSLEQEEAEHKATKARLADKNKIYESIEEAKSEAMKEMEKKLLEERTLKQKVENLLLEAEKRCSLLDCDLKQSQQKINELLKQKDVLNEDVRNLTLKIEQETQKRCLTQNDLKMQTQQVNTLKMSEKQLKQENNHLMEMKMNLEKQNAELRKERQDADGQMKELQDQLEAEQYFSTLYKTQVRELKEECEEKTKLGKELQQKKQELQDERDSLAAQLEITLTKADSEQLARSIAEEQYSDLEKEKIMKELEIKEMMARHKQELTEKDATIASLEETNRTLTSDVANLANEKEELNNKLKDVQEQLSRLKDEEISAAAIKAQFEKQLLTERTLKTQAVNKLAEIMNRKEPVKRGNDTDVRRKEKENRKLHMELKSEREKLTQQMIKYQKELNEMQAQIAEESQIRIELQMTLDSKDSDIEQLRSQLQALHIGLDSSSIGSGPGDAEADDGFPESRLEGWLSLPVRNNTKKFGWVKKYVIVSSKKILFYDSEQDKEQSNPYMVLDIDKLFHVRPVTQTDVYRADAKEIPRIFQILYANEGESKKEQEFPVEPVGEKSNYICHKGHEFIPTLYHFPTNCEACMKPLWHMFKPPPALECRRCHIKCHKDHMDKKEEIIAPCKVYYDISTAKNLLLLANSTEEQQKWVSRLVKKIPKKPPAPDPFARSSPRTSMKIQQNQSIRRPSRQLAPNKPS
# Sequence of JNK1 (P45983 whole entry, species assumed): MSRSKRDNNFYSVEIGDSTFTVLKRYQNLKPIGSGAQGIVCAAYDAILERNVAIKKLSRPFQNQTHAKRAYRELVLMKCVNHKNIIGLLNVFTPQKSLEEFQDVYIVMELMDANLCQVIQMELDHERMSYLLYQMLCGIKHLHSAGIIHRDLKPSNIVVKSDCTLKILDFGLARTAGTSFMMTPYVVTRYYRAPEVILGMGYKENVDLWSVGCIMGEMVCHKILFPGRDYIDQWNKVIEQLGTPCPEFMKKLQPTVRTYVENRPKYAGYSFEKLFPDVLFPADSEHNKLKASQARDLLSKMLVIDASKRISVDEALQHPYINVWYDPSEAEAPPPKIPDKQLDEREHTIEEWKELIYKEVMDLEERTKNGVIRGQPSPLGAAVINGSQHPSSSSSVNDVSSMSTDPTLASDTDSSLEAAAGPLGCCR
# Sequence of MLK3 (Q16584 whole entry, species assumed): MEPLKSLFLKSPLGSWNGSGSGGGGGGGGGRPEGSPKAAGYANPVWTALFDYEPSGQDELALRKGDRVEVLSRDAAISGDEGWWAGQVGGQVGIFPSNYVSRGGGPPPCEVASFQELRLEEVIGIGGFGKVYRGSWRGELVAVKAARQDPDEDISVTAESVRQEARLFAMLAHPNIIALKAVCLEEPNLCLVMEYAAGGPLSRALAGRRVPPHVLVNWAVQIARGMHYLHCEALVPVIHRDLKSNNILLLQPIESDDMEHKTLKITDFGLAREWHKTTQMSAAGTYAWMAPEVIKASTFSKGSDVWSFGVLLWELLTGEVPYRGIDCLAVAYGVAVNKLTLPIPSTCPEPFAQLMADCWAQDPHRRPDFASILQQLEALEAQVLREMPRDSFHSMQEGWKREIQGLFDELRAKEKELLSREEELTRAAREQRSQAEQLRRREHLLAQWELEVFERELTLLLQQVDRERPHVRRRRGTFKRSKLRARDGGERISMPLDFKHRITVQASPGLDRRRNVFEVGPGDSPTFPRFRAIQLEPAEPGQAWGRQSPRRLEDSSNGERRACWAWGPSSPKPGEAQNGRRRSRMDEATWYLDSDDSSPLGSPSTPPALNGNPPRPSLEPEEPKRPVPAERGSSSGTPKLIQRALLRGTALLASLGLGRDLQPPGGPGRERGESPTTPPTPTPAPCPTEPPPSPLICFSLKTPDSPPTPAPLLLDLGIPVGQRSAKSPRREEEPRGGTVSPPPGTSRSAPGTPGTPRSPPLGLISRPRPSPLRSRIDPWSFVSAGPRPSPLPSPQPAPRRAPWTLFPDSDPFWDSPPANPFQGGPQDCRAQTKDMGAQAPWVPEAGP
# Sequence of CHK2 (O96017 whole entry, species assumed): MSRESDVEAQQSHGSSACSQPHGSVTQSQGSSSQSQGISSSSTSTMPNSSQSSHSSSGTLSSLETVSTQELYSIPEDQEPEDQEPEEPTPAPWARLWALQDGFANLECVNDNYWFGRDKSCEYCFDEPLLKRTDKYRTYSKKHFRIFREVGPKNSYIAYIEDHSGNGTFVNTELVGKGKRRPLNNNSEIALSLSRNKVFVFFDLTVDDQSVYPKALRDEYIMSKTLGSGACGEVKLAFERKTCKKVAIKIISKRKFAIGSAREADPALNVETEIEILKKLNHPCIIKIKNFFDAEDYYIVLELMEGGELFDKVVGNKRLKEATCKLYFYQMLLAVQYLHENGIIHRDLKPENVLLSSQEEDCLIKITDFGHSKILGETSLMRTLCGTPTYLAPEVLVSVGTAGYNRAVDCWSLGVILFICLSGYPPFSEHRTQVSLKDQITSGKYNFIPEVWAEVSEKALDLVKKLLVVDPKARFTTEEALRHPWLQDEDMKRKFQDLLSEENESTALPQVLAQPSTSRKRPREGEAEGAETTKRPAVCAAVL
Compound,"residual kinase activity, JNK1 (JNK1; [2])","residual kinase activity, TBK1 (TBK1; [2])","residual kinase activity, PLK1 (PLK1; [2])","residual kinase activity, CHK2 (CHK2; [2])","residual kinase activity, PKD1 (PKD1; [2])","residual kinase activity, MLK3 (MLK3; [2])","residual kinase activity, PKCz (PKCz; [2])","residual kinase activity, CAMK1 (CAMK1; [2])","residual kinase activity, ROCK 2 (ROCK 2; [2])",also measured
"CC(=O)Nc1cccc(NC(=O)c2nc3ccc(O)cc3s2)c1 [Compound 03-07, N-(3-acetamidophenyl)-6-hydroxybenzo[d]thiazole-2-carboxamide]",,,,,,,,,,remaining activity at 100 µM (JNK1; [1]): 103%; remaining activity at 100 µM (TBK1; [1]): 92%; remaining activity at 100 µM (PLK1; [1]): 93%; remaining activity at 100 µM (CHK2; [1]): 23%; remaining activity at 100 µM (PKD1; [1]): 61%; remaining activity at 100 µM (MLK3; [1]): 39%; remaining activity at 100 µM (PKCz; [1]): 107%; remaining activity at 100 µM (CAMK1; [1]): 44%; remaining activity at 100 µM (ROCK 2; [1]): 27%
O=C(Nc1nc2cc(O)ccc2s1)c1ccncc1 [Compound 03-11],95,80,76,93,74,95,86,85,80,
O=C(Nc1nc2ccc(O)cc2s1)c1ccccn1 [Compound 03-12],105,68,65,23,70,46,88,47,68,
O=C(Nc1nc2cc(O)ccc2s1)c1ccccn1 [Compound 03-13],93,73,96,75,76,57,102,111,96,
COc1ccc2sc(NC(C)=O)nc2c1 [Compound 03-21],,,,,,,,,,remaining activity at 100 µM (JNK1; [2]): 97%; remaining activity at 100 µM (TBK1; [2]): 81%; remaining activity at 100 µM (PLK1; [2]): 90%; remaining activity at 100 µM (CHK2; [2]): 58%; remaining activity at 100 µM (PKD1; [2]): 59%; remaining activity at 100 µM (MLK3; [2]): 59%; remaining activity at 100 µM (PKCz; [2]): 85%; remaining activity at 100 µM (CAMK1; [2]): 81%; remaining activity at 100 µM (ROCK 2; [2]): 52%
CC(=O)Nc1nc2ccccc2s1 [Compound 03-32],97,88,62,87,105,71,126,99,91,
O=C(Nc1nc2cc(O)ccc2s1)c1cccnc1 [Compound 03-33],111,97,80,46,71,48,105,104,53,
O=C(Nc1nc2ccc(O)cc2s1)c1ccccc1 [Compound 03-60],88,36,74,5,47,5,80,22,11,
CC(=O)Nc1nc2cc(C(F)(F)F)ccc2s1 [Compound 03-73],,,,,,,,,,remaining activity at 100 µM (JNK1; [2]): 120%; remaining activity at 100 µM (TBK1; [2]): 64%; remaining activity at 100 µM (PLK1; [2]): 91%; remaining activity at 100 µM (CHK2; [2]): 78%; remaining activity at 100 µM (PKD1; [2]): 83%; remaining activity at 100 µM (MLK3; [2]): 57%; remaining activity at 100 µM (PKCz; [2]): 97%; remaining activity at 100 µM (CAMK1; [2]): 89%; remaining activity at 100 µM (ROCK 2; [2]): 83%

# — patent US10231954B2, “Neurodegenerative therapies” (LYTIX BIOPHARMA AS, priority 2014, dated 2019)
